According to patent US20130095059A1, “INHALED NO DONOR KMUPS DERIVATIVE PREVENTING ALLERGIC PULMONARY VASCULAR AND BRONCHIAL INFLAMMATION VIA SUPPRESSED CYTOKINES, INOS AND INFLAMMATORY CELL COUNTS IN ASTHMA MODEL” (priority 2007, published 2013):

System: ROCK
Experiment: 5-HT-induced ROCK expression in PASMCs
Type: cell-based, Wistar rats
Settings: 10 μM
Method: PASMCs were stimulated with 5-HT or not, as indicated. Cells were treated with KMUP-1 for 24 h before 5-HT stimulation. Whole lysates were collected and resolved by SDS-PAGE as previously described. Primary antibodies were anti-β-actin at: 1:10,000 dilution and anti-RhoA, anti-ROCK, antiphospho-ERK1/2, anti-phospho-AKT, anti-ERK1/2, anti-AKT, anti-5HTT, anti-5-HT2B and anti-eNOS at 1:1000. All blots were incubated with antibodies at 4° C. overnight. After being washed, the appropriate secondary antibodies were added at a dilution of 1:1000 for 1 h at room temperature. After extensive washing, blots were developed with a Super Signal enhanced chemiluminescence kit (Biorad, CA, USA) and visualized on Kodak AR film.
The expression of RhoA/ROCK and phosphorylation of ERK1/2 and AKT kinase in PASMCs were assessed by incubating the PASMCs with 5-HT (10 μM) for 15 min (peak time for RhoA/ROCK, ERK1/2 and AKT phosphorylation) and 5-HTT for 10 min (peak time for 5-HTT) after KMUP-1 (1-100 μM) was added to the culture of PASMCs for 24 h.

C[C@@H](N)[C@H]1CC[C@H](C(=O)Nc2ccncc2)CC1 [Y27632, reference compound]
ROCK expression: inhibited
